Test results published in PMC8219695 (Nature Communications, 2021).
Where “and” joins values, the source holds several entries; their conditions need not be identical. Identical values can stand only once.

Legend:
[1] = test system: mice; settings: previously determined; cited from earlier work
[2] = molecular target: hDOR (Homo sapiens, UniProt P41143); assay: CAMYEL BRET antagonism assay at hDOR (inhibition of DPDPE); format: cell-based; settings: for Antagonist activity at the hDOR (raw signal): individual replicates, Supplementary Figure 9A source data
[3] = molecular target: T1, mDOR (Mus musculus, UniProt P32300); assay: CAMYEL BRET antagonism assay at mDOR (inhibition of DPDPE); format: cell-based; settings: for Antagonist activity at the mDOR (raw signal): individual replicates, Supplementary Figure 9B source data
T1 construct: expressed in transfected cells

[4] = molecular target: T2, rKOR (Rattus norvegicus, UniProt P34975); assay: CAMYEL BRET antagonism assay at rKOR (inhibition of U-50,488); format: cell-based; settings: inhibition of reference agonist U50,488 (EC80)
T2 construct: expressed in transfected cells

[5] = test system: WT C57 and MOR KO mice; assay: Tail-flick in wild-type and MOR KO mice; format: in vivo, mouse; settings: individual animals
Protocol: CD1 mice (n = 10), at peak analgesic time point. […] Dose–response curves of 22 (s.c.), in the tail-flick assay was evaluated 15 min post drug administration in WT, C57 mice (n = 8) and MOR KO mice (n = 5). Each point represents mean ± SEM.
To confirm that the low-efficacy analgesia is driven by MOR, and no other targets or mechanisms (e.g., other opioid receptors or non-opioid off-targets), we performed the mouse tail-flick assay in wild-type (WT), and MOR knockout (MOR KO) mice with the same genetic background (Fig. 9e).
For analgesic testing in KO animals, wild-type, male C57BL/6 mice (22–33 g), 10–12 weeks were purchased from the Jackson Lab (Bar Harbor, ME). These mice were kept at a constant temperature of 22 ± 2 °C, and relative humidity was maintained at 40–50%. Exon-1/Exon-11 MOR-1 KO mice on a C57 background were bred in the Pintar laboratory at Rutgers University. All mice were maintained on a 12-hour light/dark cycle with food and water available ad libitum, and housed in groups of five until testing. All testing was done in the light cycle.
Analgesia was tested in wild-type and MOR KO animals by the radiant heat tail-flick technique using an IITC Model 33 Tail Flick Analgesia Meter as previously described. The intensity was set to achieve a baseline between 2 and 3 s. Tail-flick antinociception was assessed as an increase in baseline latency, with a maximal 10 s latency to minimize damage to the tail. Data were analyzed as percent maximal effect, % MPE, which was calculated according to the formula: % MPE [(observed latency − baseline latency)/(maximal latency − baseline latency)] × 100. Compounds were administered s.c. as indicated in the figures, and analgesia was assessed at the peak effect (15 min). Mice were tested for analgesia with cumulative subcutaneous doses of the drug until the mouse can withstand the maximal latency. Once the mouse reached the maximal latency, the mouse was no longer given higher doses. In vivo experiments were evaluated using GraphPad Prism 8, San Diego, CA as described above. […]
dilution series was prepared for the desired doses of 0.1, 0.3, 1, 3, and 10 mg/kg (concentrations 0.01 mg/mL, 0.03 mg/mL, 0.1 mg/mL, 0.3 mg/mL, and 1 mg/mL respectively). Solutions were filtered through a PTFE 0.45μm syringe filter and administered s.c. at a max volume of 300μL.
Tail Flick (Dose – response)
Tail flick antinociception was determined using the radiant heat tail flick technique using an Ugo Basile model 37360 instrument as previously described.21,22 The intensity was set to achieve a baseline between 2 and 3 s. Baseline latencies were determined before experimental treatments for all mice. Tail flick antinociception was assessed as an increase in baseline latency, with a maximal 15 s latency to minimize damage to the tail. Data were analyzed as percent maximal effect, %MPE, and was calculated according to the formula: % MPE = [(observed latency – baseline latency)/(maximal latency – baseline latency)] × 100.
Compounds were injected subcutaneously (s.c.) and antinociception was assessed at the peak effect. Mice were tested for analgesia with cumulative subcutaneous doses of the drug until the mouse can withstand the maximal latency. Once the mouse reached the maximal latency, the mouse was no longer given higher doses. The analgesia experiments were performed by blinding the experimenter to the identity of 7OH versus 11-F-7OH. In vivo experiments were evaluated using GraphPad Prism 8, San Diego, CA as described […]
Analgesia was tested in wild-type and MOR KO animals by the radiant heat tail-flick technique using an IITC Model 33 Tail Flick Analgesia Meter as previously described.23 The intensity was set to achieve a baseline between 2 and 3 s. Tail flick antinociception was assessed as an increase in baseline latency, with a maximal 10 s latency to minimize damage to the tail. Data were analyzed as percent maximal effect, %MPE, which was calculated according to the formula: % MPE [(observed latency − baseline […]

[6] = Log[drug] (M) -5, against EC80 DPDPE
[7] = Log[drug] (M) -6, against EC80 DPDPE
[8] = Log[drug] (M) -7, against EC80 DPDPE
[9] = Log[drug] (M) -8, against EC80 DPDPE
[10] = Log[drug] (M) -9, against EC80 DPDPE
[11] = Log[drug] (M) -10, against EC80 DPDPE
[12] = Log[drug] (M) -11, against EC80 DPDPE
[13] = inhibition of reference agonist DPDPE (EC80)

hDOR, sequence (P41143 whole entry): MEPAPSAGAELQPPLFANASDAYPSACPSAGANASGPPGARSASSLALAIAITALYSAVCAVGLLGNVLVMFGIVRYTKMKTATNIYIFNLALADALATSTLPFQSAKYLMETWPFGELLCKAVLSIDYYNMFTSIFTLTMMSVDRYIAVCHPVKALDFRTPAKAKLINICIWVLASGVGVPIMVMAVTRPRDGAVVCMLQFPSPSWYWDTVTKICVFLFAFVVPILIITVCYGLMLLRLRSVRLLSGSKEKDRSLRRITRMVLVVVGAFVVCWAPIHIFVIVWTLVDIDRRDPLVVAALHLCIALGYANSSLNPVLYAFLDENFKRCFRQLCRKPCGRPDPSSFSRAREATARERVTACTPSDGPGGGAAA
T1 sequence (P32300 whole entry): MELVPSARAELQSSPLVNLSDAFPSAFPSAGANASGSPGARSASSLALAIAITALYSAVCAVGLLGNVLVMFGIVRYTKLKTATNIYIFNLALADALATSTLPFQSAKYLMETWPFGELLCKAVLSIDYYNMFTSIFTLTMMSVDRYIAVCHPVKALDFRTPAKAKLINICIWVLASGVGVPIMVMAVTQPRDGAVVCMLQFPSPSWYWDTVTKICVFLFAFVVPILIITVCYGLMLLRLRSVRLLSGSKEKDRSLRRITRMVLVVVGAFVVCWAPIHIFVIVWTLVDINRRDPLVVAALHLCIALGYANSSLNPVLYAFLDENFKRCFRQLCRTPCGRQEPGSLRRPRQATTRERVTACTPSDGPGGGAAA
T2 sequence (P34975 whole entry): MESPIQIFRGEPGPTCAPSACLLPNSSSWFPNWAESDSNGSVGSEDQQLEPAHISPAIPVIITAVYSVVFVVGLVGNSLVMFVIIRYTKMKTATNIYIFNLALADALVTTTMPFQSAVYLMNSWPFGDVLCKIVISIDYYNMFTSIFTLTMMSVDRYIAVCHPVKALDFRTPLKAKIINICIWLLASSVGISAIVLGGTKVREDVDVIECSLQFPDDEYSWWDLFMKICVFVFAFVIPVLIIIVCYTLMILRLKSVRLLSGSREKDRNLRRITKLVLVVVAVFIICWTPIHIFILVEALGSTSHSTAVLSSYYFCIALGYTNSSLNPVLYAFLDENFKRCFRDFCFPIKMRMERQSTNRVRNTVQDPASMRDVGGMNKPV

SMILES: CC[C@@H]1CN2CC[C@@]3(O)C(=Nc4cccc(OC)c43)[C@@H]2C[C@@H]1/C(=C\OC)C(=O)OC [7OH, 7-Hydroxymitragynine, reference compound]
- ED50 (95% CI) mouse tail-flick [1]: 0.57 (0.19–1.7) mg/kg

SMILES: CC[C@@H]1CN2CC[C@@]3(O)C(=Nc4cc(Br)cc(OC)c43)[C@@H]2C[C@@H]1/C(=C\OC)C(=O)OC [11-Br-7OH (24), 11-Br-7OH]
- Antagonist activity at the hDOR (raw signal) [2, 6]: 0.02104 and 0.01573 and 0.009966 and -0.01593 and -0.01928 and -0.02427 and 0.02048 and 0.01948 and 0.01559
- Antagonist activity at the hDOR (raw signal) [2, 7]: 0.04515 and 0.04385 and 0.04449 and 0.03157 and 0.04067 and 0.05399 and 0.01786 and 0.03044 and 0.02432
- Antagonist activity at the hDOR (raw signal) [2, 8]: 0.1057 and 0.11 and 0.09817 and 0.09774 and 0.0895 and 0.09531 and 0.04711 and 0.02047 and 0.02787
- Antagonist activity at the hDOR (raw signal) [2, 9]: 0.1076 and 0.1055 and 0.1083 and 0.107 and 0.1014 and 0.09451 and 0.04651 and 0.03638 and 0.03747
- Antagonist activity at the hDOR (raw signal) [2, 10]: 0.1047 and 0.1019 and 0.1172 and 0.09234 and 0.1022 and 0.1004 and 0.02352 and 0.04174 and 0.03714
- Antagonist activity at the hDOR (raw signal) [2, 11]: 0.1014 and 0.1021 and 0.1072 and 0.1078 and 0.1042 and 0.1009 and 0.03392 and 0.02253 and 0.04348
- Antagonist activity at the hDOR (raw signal) [2, 12]: 0.122 and 0.117 and 0.1095 and 0.09539 and 0.09115 and 0.09894 and 0.04038 and 0.02714 and 0.0351
- antagonism at hDOR [2, 13]: full inhibition
- Antagonist activity at the mDOR (raw signal) [3, 6]: 0.06399 and 0.06291 and 0.07141 and -0.0292 and -0.02688 and -0.02364 and 0.0237 and 0.00593 and 0.00355
- Antagonist activity at the mDOR (raw signal) [3, 7]: 0.1505 and 0.1501 and 0.1583 and 0.09131 and 0.07128 and 0.07775 and 0.02237 and 0.03499 and 0.03942
- Antagonist activity at the mDOR (raw signal) [3, 8]: 0.2144 and 0.2068 and 0.2165 and 0.1245 and 0.1236 and 0.1249 and 0.06242 and 0.05459 and 0.06232
- Antagonist activity at the mDOR (raw signal) [3, 9]: 0.2065 and 0.2182 and 0.2145 and 0.1188 and 0.1346 and 0.1274 and 0.05577 and 0.0581 and 0.03338
- Antagonist activity at the mDOR (raw signal) [3, 10]: 0.2158 and 0.2138 and 0.2085 and 0.1371 and 0.1339 and 0.1253 and 0.04145 and 0.04861 and 0.04624
- Antagonist activity at the mDOR (raw signal) [3, 11]: 0.2122 and 0.2205 and 0.2303 and 0.1255 and 0.1229 and 0.131 and 0.04756 and 0.04362 and 0.03388
- Antagonist activity at the mDOR (raw signal) [3, 12]: 0.208 and 0.2144 and 0.211 and 0.1321 and 0.1264 and 0.1313 and 0.05075 and 0.03733 and 0.04896
- antagonism at mDOR [3, 13]: full inhibition
- antagonism at rKOR [4]: full inhibition

SMILES: CC[C@@H]1CN2CC[C@@]3(O)C(=Nc4cc(F)cc(OC)c43)[C@@H]2C[C@@H]1/C(=C\OC)C(=O)OC [11-F-7OH (22), 11-Fluoro-7-hydroxymitragynine]
- Antinociceptive effect, MOR KO ([5]; dose 0.1): 40.7407 and 22.4138 and -2.941 and 22.6277 and 21.0084
- Antinociceptive effect, MOR KO ([5]; dose 0.3): 14.0741 and 33.6207 and 22.0588 and 13.1387 and 14.2857
- Antinociceptive effect, MOR KO ([5]; dose 1): 30.3704 and 1.724 and 19.8529 and 38.6861 and -26.8908
- Antinociceptive effect, MOR KO ([5]; dose 3): 30.3704 and -6.897 and 22.0588 and 27.0073 and 1.681
- Antinociceptive effect, MOR KO ([5]; dose 10): 100 and 18.1034 and -5.882 and 26.2774 and -0.8403
- Antinociceptive effect, Wild Type ([5]; dose 0.1): 7.432 and 25.9259 and 5.926 and 9.722 and -11.5108 and 0 and 3.521 and -7.971
- Antinociceptive effect, Wild Type ([5]; dose 0.3): 22.2973 and 19.2593 and 0 and 16.6667 and -0.7194 and 4.895 and -7.746 and 40.5797
- Antinociceptive effect, Wild Type ([5]; dose 1): 71.6216 and -1.481 and 44.4444 and 10.4167 and 5.036 and 71.3287 and 100 and 14.4927
- Antinociceptive effect, Wild Type ([5]; dose 3): 100 (3×) and 5.185 and 43.7037 and 11.1111 and 41.0072 and -2.899
- Antinociceptive effect, Wild Type ([5]; dose 10): 62.1622 and 30.3704 and 25.1852 and 100 (2×) and 12.2302 and 25.1748 and 47.1014
